Test results: patent US20240239806A1, “COMPOUNDS, COMPOSITIONS AND METHODS OF TREATING DISORDERS” (Chengdu Anticancer Bioscience, Ltd., priority 2021, published 2024)
Read-outs that look alike come from different tables or passages of the source.

Test system: RPEMYC^H2B-GFP cells
Assay: Phenotypic screening assay (mitotic arrest, polyploidy)
Type: cell-based
Conditions: 1 nM to 30 μM; for IC50: read-out: Proliferative arrest (>50%)
Description: We have previously developed a mechanism-informed phenotypic screening assay to identify novel antimitotic agents. Equipped with a prior understanding of the versatile functions of the chromosomal passenger protein (CPP) complex in orchestrating karyokinesis and cytokinesis, the screening assay is to score for phenotypes typically seen when the CPP complex is disabled. Specifically, the parameters for a positive hit are a temporary elevation of mitotic index (MI) at 24 hours of drug treatment and an accumulation of polyploid cells at 48 hours of drug treatment, indicative of mitotic arrest and cytokinetic failure respectively. These parameters exclude compounds that elicit only a prolonged arrest of cells in mitosis, a phenotype typically provoked by spindle toxins. The screening procedure is briefly summarized here. RPEMYC^H2B-GFP cells engineered to express a Histone 2B-EGFP fusion protein were passaged as batches of 96-well plates, 18-24 hours before exposure to the chemical compounds of the present disclosure at concentrations from 1 nM to 30 μM. At 24, 48 or 72 hours after initiation of treatment, cells were analyzed for either an arrest in mitosis or a change in DNA content by GE IN-Cell Analyzer 2000. As set forth in Table 2 below, a value of greater than or equal to 1 nM and less than or equal to 1.0 μM is marked “A”; a value greater than 1.00 μM and less than or equal to 10.0 μM is marked “B”; a value greater than 10.0 μM and less than or equal to 30.0 μM is marked “C”; and a value greater than 30.0 μM is marked “D.”

[1] = read-out: Min. Effective conc. for Polyploidy (≥5%)

Compound	minimal effective concentration [1]	minimal effective concentration (read-out: Mitotic Arrest (≥5%))	IC50
COc1cc(Oc2ccnc3cc(OC)c(Br)cc23)cc(-n2cccn2)c1 [Compound 88, 6-bromo-7-methoxy-4-(3-methoxy-5-(1H-pyrazol-1-yl)phenoxy)quinoline]	0.001 to 1 µM	0.001 to 1 µM	
COc1cc(OC)cc(Oc2ccnc3cc(OC)c(C(N)=O)cc23)c1 [Compound 69, 4-(3,5-Dimethoxyphenoxy)-7-methoxyquinolin-6-carboxamide]	0.001 to 1 µM	0.001 to 1 µM	1 to 1000 nM
CNC(=O)c1cc(OC)cc(Oc2ccnc3cc(OC)c(C(N)=O)cc23)c1 [Compound 71, 7-Methoxy-4-(3-methoxy-5-(methylcarbamoyl)phenoxy) quinoline-6-carboxamide]	1 to 10 µM	1 to 10 µM	1000 to 10000 nM
COc1cc(NC(C)=O)cc(Oc2ccnc3ccc(C(=O)O)cc23)c1 [Compound 52, 4-(3-Acetamido-5-methoxyphenoxy) quinoline-6-carboxylic acid]	10 to 30 µM	1 to 10 µM	10000 to 30000 nM
COc1cc(Oc2ccnc3cc(OC)c(C(N)=O)cc23)cc(OC2CCOC2)c1 (centres unmarked) [Compound 6, 7-methoxy-4-(3-methoxy-5-((tetrahydrofuran-3-yl)oxy)phenoxy)quinoline-6-carboxamide]	0.001 to 1 µM	0.001 to 1 µM	
COc1cc(Oc2ccnc3ccc(Cl)cc23)cc(-n2cccn2)c1 [Compound 51, 6-Chloro-4-(3-methoxy-5-(1H-pyrazol-1-yl)phenoxy) quinoline]	0.001 to 1 µM	0.001 to 1 µM	1 to 1000 nM
COc1cc(N)cc(Oc2ccnc3ccc(Br)cc23)c1 [Compound 91, 3-((6-bromoquinolin-4-yl)oxy)-5-methoxyaniline]	0.001 to 1 µM	0.001 to 1 µM	
COc1cc(Oc2ccnc3cc(OC)c(C(N)=O)cc23)cc(O[C@@H]2CCOC2)c1 [Compound 81, (R)-7-methoxy-4-(3-methoxy-5-((tetrahydrofuran-3-yl)oxy)phenoxy)quinoline-6-carboxamide]	0.001 to 1 µM	0.001 to 1 µM	
COc1cc(Oc2ncnc3cc(OC)c(OC)cc23)cc(-n2ccnc2)c1 [Compound 79, 4-(3-(1H-Imidazol-1-yl)-5-methoxyphenoxy)-6,7-dimethoxyquinazoline]	10 to 30 µM	10 to 30 µM	10000 to 30000 nM
COc1cc(Oc2ccnc3cc(OC)c(C(N)=O)cc23)cc(-c2ncccn2)c1 [Compound 62, 7-Methoxy-4-(3-methoxy-5-(pyridimin-2-yl)phenoxy) quinoline-6-carboxamide]	0.001 to 1 µM	0.001 to 1 µM	1 to 1000 nM
COc1cc(NC(C)=O)cc(Oc2ccnc3ccc(I)cc23)c1 [Compound 60, N-(3-((6-iodoquinolin-4-yl)oxy)-5-methoxyphenyl) acetamide]	0.001 to 1 µM	0.001 to 1 µM	1 to 1000 nM
COc1cc(Oc2ccnc3cc(OC)c(C(N)=O)cc23)cc(-c2cnn(C)c2)c1 [Compound 66, 7-Methoxy-4-(3-methoxy-5-(1-methyl-H-pyrazol-4-yl)phenoxy)quinoline-6-carboxamide]	0.001 to 1 µM	0.001 to 1 µM	1 to 1000 nM
CNC(=O)c1cc(OC)cc(Oc2ccnc3ccccc23)c1 [Compound 10, 3-methoxy-N-methyl-5-(quinolin-4-yloxy)benzamide]	1 to 10 µM	0.001 to 1 µM	1000 to 10000 nM
CCOc1cc(Oc2ccnc3ccc(Br)cc23)cc(C(=O)NC)c1 [Compound 68]	0.001 to 1 µM	0.001 to 1 µM	1 to 1000 nM
COc1cc(Oc2ccnc3cc(OC)c(C(N)=O)cc23)cc(-c2nnc(C)o2)c1 [Compound 87, 7-methoxy-4-(3-methoxy-5-(5-methyl-1,3,4-oxadiazol-2-yl)phenoxy)quinoline-6-carboxamide]	0.001 to 1 µM	0.001 to 1 µM	
COc1cc(Oc2ccnc3cc(OC)c(C(N)=O)cc23)cc(-c2nc(C)no2)c1 [Compound 64, 7-Methoxy-4-(3-methoxy-5-(3-methyl-1,2,4-oxadiazol-5-yl)phenoxy)quinoline-6-carboxamide]	0.001 to 1 µM	0.001 to 1 µM	1 to 1000 nM
COc1cc(OC)cc(Oc2ccnc3ccc(Br)cc23)c1 [Compound 48, 6-Bromo-4-(3,5-dimethoxyphenoxy) quinoline]	0.001 to 1 µM	0.001 to 1 µM	1 to 1000 nM
COc1cc(Oc2ccnc3cc(OC)c(C(N)=O)cc23)cc(-n2cc(C)cn2)c1 [Compound 84]	0.001 to 1 µM	0.001 to 1 µM	
COc1cc2nccc(Oc3cc(OC4CCOC4)cc(OC4CCOC4)c3)c2cc1C(N)=O (centres unmarked) [Compound 82, 4-(3,5-bis((tetrahydrofuran-3-yl)oxy)phenoxy)-7-methoxyquinoline-6-carbonamide]	1 to 10 µM	1 to 10 µM	
COc1cc(Oc2ccnc3cc(OC)c(C(N)=O)cc23)cc(-n2ccc(C)n2)c1 [Compound 85, 7-methoxy-4-(3-methoxy-5-(3-methyl-1H-pyrazol-1-yl)phenoxy)quinoline-6-carboxamide]	0.001 to 1 µM	0.001 to 1 µM	
COc1cc(Oc2cc(Cl)nc3ccc(Br)cc23)cc([N+](=O)[O-])c1 [Compound 97, 4-(3-methoxy-5-nitrophenoxy)-6-bromo-2-chloroquinoline]	> 30 µM	> 30 µM	
COc1cc(Oc2ccnc3ccc(Br)cc23)cc(-c2nc(C)no2)c1 [Compound 67, 5-(3-((6-Bromoquinolin-4-yl)oxy)-5-methoyphenyl)-3-methyl-1,2,4-oxadiazole]	0.001 to 1 µM	0.001 to 1 µM	1 to 1000 nM
CNC(=O)c1cc2c(Oc3cc(NC(C)=O)cc(OC)c3)ccnc2cc1OC [Compound 45, 4-(3-Acetamido-5-methoxyphenoxy)-7-methoxy-N-methylquinoline-6-carboxamide]	1 to 10 µM	1 to 10 µM	1000 to 10000 nM
COc1cc(Oc2ccnc3ccccc23)cc(C(F)(F)F)c1 [Compound 11]	1 to 10 µM	1 to 10 µM	1000 to 10000 nM
COc1cc(OCC2CCOC2)cc(Oc2ccnc3cc(OC)c(C(N)=O)cc23)c1 (centres unmarked) [Compound 83, 7-methoxy-4-(3-methoxy-5-((tetrahydrofuran-3-yl)methoxy)phenoxy)quinoline-6-carboxamide]	0.001 to 1 µM	0.001 to 1 µM	
COc1cc(Oc2ncnc3ccccc23)cc(-n2cccn2)c1 [Compound 73, 4-(3-Methoxy-5-(1H-pyrazol-1-yl)phenoxy) quinazoline]	10 to 30 µM	10 to 30 µM	10000 to 30000 nM
COc1cc(NC(C)=O)cc(Oc2ccnc3ccc(Cl)cc23)c1 [Compound 50, N-(3-((6-chloroquinolin-4-yl)oxy)-5-methoxyphenyl) acetamide]	0.001 to 1 µM	0.001 to 1 µM	1 to 1000 nM
